Experiment [1] deals with apomorphine climbing. The experiment can be described thus: Climbing Mice Assay (antagonism of apomorphine-induced climbing). It counts as in vivo, mice (CK-1 male mice). As to conditions: Mus musculus; ip; apomorphine 1.5 mg/kg subcutaneously. Here is the method:
Antipsychotic activity is determined in the Climbing Mice Assay by a method similar to that described by P. Protais, et al., Psychopharmacol., 50, 1 (1976) and B. Costall, Eur. J. Pharmacol., 50, 39 (1978).
The subject CK-1 male mice (23-27 grams) are group-housed under standard laboratory conditions. The mice are individually placed in wire mesh stick cages (4"×4"×10") and are allowed one hour for adaptation and exploration of the new environment. Then apomorphine is injected subcutaneously at 1.5 mg/kg, a dose causing climbing in all subjects for 30 minutes.
Compounds to be tested for antipsychotic activity are injected intraperitoneally or given orally at various time intervals, e.g. 30 minutes, 60 minutes, etc. prior to the apomorphine challenge at a screening dose of 10-60 mg/kg.
For evaluation of climbing, 3 readings are taken at 10, 20 and 30 minutes after apomorphine administration according to the following scale:
4 paws on bottom (no climbing)
2 paws on the wall (rearing)
4 paws on the wall (full climb)
Mice consistently climbing before the injection of apomorphine will be discarded.
With full-developed apomorphine climbing, the animals are hanging on to the cage walls, rather motionless, over longer periods of time. By contrast, climbs due to mere motor stimulation usually only last a few seconds.
The climbing scores are individually totaled (maximal score: 6 per mouse over 3 readings) and the total score of the control group (vehicle intraperitoneally-apomorphine subcutaneously) is set to 100%. ED50 values with 95% confidence limits, calculated by a linear regression analysis, of some of the compounds of the instant invention as well as a standard antipsychotic agent are presented in Table I.

For experiment [2], the system named is phenyl-p-quinone writhing. Nature of the experiment: phenyl-p-quinone writhing assay (analgesia). The format is in vivo, mice. As to conditions: Mus musculus, sc; s.c; read-out: ED50 Inhibition of Writhing. An excerpt:
Exptl. Biol. Med. 95, 729 (1957)]
In general terms: An intraperitoneal irritant provokes the stretching counted in writhing tests.

SMILES strings stand for the structures. Where a name gives a salt, the structure may show the parent alone.

`Cl.O=C1c2c(-c3ccccc3)noc2CCC1CCCN1CCC(c2ccc(F)cc2)CC1` (stereo not drawn) [6,7-dihydro-5-[3-(4-(4-fluorophenyl)-1-piperidinyl)-propyl]-3-phenyl-1,2-benzisoxazol-4(5H)-one hydrochloride] had an ED50 in experiment [1] of 6.36 mg/kg. For the compound `COc1ccccc1N1CCN(CCCC2CCc3onc(-c4ccccc4)c3C2=O)CC1` (stereo not drawn) [Example 14, 6,7-Dihydro-5-[3-(4-(2-methoxyphenyl)-1-piperazinyl)-propyl]-3-phenyl-1,2-benzisoxazol-4(5H)-one dihydrochloride], the ED50 in experiment [1] was determined as 15 mg/kg; in experiment [2], 5.18 mg/kg. As to `O=C(c1ccc(F)cc1)C1CCN(CCCC2CCc3onc(-c4ccccc4)c3C2=O)CC1` (stereo not drawn) [Example 15, 6,7-Dihydro-5-[3-(4-(4-fluorobenzoyl)-1-piperidinyl)-propyl]-3-phenyl-1,2-benzisoxazol-4(5H)-one hydrochloride], the ED50 in experiment [2] amounted to 3.99 mg/kg. `Cl.O=C(c1ccc(F)cc1)C1CCN(CCCC2CCc3onc(-c4ccccc4F)c3C2=O)CC1` (stereo not drawn) [Example 19, 6,7-Dihydro-5-[3-(4-(4-fluorobenzoyl)-1-piperidinyl)-propyl]-3-(2-fluorophenyl)-1,2-benzisoxazol-4(5H)-one hydrochloride] gave an ED50 in experiment [1] of 2.9 mg/kg. For `O=C(c1ccc(F)cc1)C1CCN(CCCC2CCc3onc(-c4ccc(F)cc4)c3C2=O)CC1` (stereo not drawn) [Example 20, 6,7-Dihydro-5-[3-(4-(4-fluorobenzoyl)-1-piperidinyl)-propyl]-3-(4-fluorophenyl)-1,2-benzisoxazol-4(5H)-one hydrochloride], in experiment [1], the ED50 worked out at 6.2 mg/kg. Still for that read-out and setting: to `O=C(c1ccc(F)cc1)C1CCN(CCCC2CCc3onc(-c4cccc(F)c4)c3C2=O)CC1` (stereo not drawn) [Example 26, 6,7-Dihydro-5-[3-(4-(4-fluorobenzoyl)-1-piperidinyl)-propyl]-3-(3-fluorophenyl)-1,2-benzisoxazol-4(5H)-one hydrochloride] belongs 5.7 mg/kg; to `CN1CCN(C2=Nc3cc(Cl)ccc3Nc3ccccc32)CC1` [clozapine, reference compound], 9 mg/kg. Turning to `CCC(=O)O[C@](Cc1ccccc1)(c1ccccc1)[C@H](C)CN(C)C` [propoxyphene, reference compound], the ED50 in experiment [2] is 3.9 mg/kg.

The term ED50 denotes the dose at which the effect has come halfway, by size or by number of responders.

(Values after patent publication US5114936A, “6,7-dihydro-3-phenyl-1,2-benzisoxazol-4(5H)-ones and -ols, compositions and pharmaceutical use” (Hoechst-Roussel Pharmaceuticals Incorporated, priority 1991, dated 1992).)
